Source: publication PMC6155691, “Synthesis and Biological Evaluation of Novel 8-Morpholinoimidazo[1,2-a]pyrazine Derivatives Bearing Phenylpyridine/Phenylpyrimidine-Carboxamides” (Molecules : A Journal of Synthetic Chemistry and Natural …, 2017)
Where two headings read alike, the source gives them in different places.

Experiments:
[1] = system: PC-3 cell line (prostate cancer); assay: MTT cytotoxicity assay, PC-3; type: cell-based; details: Homo sapiens, 72 h, average of two separate determinations, NA: No Activity
Procedure: (§1) The target compounds 12a–g, 13a–g and 14a–g were evaluated for their in vitro cytotoxicity against three cancer cell lines (A549, PC-3 and MCF-7) by the standard MTT assay, with compound II and GDC-0941 as positive controls. […] The results expressed as inhibition rates or IC50 values are summarized in Table 1 and Table 2, where the values are the average of at least two independent experiments.
(§2) The in vitro cytotoxic activity of all the compounds 12a–g, 13a–g and 14a–g was evaluated with the A549, PC-3 and MCF-7 cell lines by the standard MTT assay, with compounds II and GDC-0941 as positive controls. The cancer cell lines were cultured in minimum essential medium (MEM) supplement with 10% fetal bovine serum (FBS). Approximately 4 × 10^3 cells, suspended in MEM medium, were plated onto each well of a 96-well plate and incubated in 5% CO2 at 37 °C for 24 h. The test compounds at indicated final concentrations were added to the culture medium and the cell cultures were continued for 72 h. Fresh MTT was added to each well at a terminal concentration of 5 μg/mL and incubated with cells at 37 °C for 4 h. The formazan crystals were dissolved in 100 μL of DMSO in each well, and the absorbance at 492 nm (for the MTT formazan) and 630 nm (for the reference wavelength) was measured with an ELISA reader. All of the compounds were tested three times in each of the cell lines. The results expressed as inhibition rates or IC50 (half-maximal inhibitory concentration) were the averages of two determinations and calculated by using the Bacus Laboratories Incorporated Slide Scanner (Bliss) software (the Bacus Laboratories Inc. Slide Scanner (BLISS) system, Lombard, IL, USA).

[2] = system: A549 cell line (lung cancer); assay: MTT cytotoxicity assay, A549; type: cell-based; details: Homo sapiens, 72 h, average of two separate determinations, NA: No Activity
Procedure: as §1, §2

[3] = system: MCF-7 cell line (breast cancer); assay: MTT cytotoxicity assay, MCF-7; type: cell-based; details: Homo sapiens, MCF7, 72 h, average of two separate determinations, NA: No Activity
Procedure: as §1, §2

[4] = biological target: PI3Kα kinase (Homo sapiens, UniProt P42336); assay: Kinase-Glo Luminescent Kinase Assay, PI3Kα; type: biochemical
Sequence of PI3Kα kinase (P42336 whole entry): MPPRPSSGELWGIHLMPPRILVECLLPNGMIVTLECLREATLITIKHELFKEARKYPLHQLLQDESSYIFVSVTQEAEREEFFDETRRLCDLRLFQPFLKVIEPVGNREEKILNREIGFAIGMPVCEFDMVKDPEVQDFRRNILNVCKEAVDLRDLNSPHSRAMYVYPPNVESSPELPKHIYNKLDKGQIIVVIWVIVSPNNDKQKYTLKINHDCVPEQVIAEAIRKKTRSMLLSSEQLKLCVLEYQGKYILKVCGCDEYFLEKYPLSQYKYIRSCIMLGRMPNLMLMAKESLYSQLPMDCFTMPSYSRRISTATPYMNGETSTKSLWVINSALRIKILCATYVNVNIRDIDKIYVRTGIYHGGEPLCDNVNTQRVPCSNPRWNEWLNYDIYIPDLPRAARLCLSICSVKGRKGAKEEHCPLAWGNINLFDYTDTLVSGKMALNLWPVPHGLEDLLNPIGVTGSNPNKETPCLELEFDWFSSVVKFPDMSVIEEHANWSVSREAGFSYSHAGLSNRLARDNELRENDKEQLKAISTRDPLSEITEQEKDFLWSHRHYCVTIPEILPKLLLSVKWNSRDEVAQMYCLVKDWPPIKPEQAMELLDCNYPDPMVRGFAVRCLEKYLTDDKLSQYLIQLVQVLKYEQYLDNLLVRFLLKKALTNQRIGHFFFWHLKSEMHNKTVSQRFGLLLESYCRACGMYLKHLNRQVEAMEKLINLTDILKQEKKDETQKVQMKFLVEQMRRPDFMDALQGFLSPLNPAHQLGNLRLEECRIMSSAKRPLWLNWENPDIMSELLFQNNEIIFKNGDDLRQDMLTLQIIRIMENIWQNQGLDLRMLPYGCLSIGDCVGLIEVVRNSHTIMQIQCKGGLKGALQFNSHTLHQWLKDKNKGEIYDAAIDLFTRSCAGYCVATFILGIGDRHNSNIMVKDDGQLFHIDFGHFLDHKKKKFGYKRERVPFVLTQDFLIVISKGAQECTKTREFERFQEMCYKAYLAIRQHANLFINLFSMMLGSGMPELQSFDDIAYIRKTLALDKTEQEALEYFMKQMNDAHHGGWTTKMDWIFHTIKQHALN
Sequence of PI3Kα kinase (P27986 whole entry partner): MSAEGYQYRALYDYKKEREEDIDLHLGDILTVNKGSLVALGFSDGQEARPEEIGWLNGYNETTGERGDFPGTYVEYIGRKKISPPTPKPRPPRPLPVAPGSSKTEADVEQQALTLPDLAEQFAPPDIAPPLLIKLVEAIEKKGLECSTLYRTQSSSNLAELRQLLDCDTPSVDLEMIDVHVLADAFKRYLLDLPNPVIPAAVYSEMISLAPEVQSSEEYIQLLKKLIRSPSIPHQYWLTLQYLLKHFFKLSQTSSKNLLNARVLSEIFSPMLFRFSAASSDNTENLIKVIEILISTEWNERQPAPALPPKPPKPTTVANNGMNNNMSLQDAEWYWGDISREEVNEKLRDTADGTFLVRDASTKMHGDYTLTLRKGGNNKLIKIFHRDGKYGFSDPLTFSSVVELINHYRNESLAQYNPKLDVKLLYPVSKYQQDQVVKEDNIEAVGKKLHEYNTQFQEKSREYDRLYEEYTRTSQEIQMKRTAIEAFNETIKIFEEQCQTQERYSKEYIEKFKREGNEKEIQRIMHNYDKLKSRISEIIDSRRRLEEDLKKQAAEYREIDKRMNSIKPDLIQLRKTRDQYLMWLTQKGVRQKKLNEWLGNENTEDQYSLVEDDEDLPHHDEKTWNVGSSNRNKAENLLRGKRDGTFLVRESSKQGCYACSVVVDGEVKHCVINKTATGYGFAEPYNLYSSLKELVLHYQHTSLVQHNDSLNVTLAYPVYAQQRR

[5] = system: PI3Kα; details: cited from earlier work
[6] = system: mTOR; parameters: method as in PMID 17339109; details: read-out: IC50 against mTOR; cited from earlier work

O=C(Nc1ccc(-c2cn3ccnc3c(N3CCOCC3)n2)cc1)c1ccc(-c2ccccc2)cn1 [12a]
IC50 [1]: 50.3 ± 2.04 µM | melting point: 268 to 270 °C | IC50 [2]: 58.7 ± 1.99 µM

O=C(Nc1ccc(-c2cn3ccnc3c(N3CCOCC3)n2)cc1)c1ccc(-c2cccc(F)c2)cn1 [12b, 5-(3-Fluorophenyl)-N-(4-(8-morpholinoimidazo[1,2-a]pyrazin-6-yl)phenyl)picolinamide]
melting point: 261 to 264 °C

O=C(Nc1ccc(-c2cn3ccnc3c(N3CCOCC3)n2)cc1)c1ccc(-c2ccc(F)cc2F)cn1 [12c, 5-(2,4-Difluorophenyl)-N-(4-(8-morpholinoimidazo[1,2-a]pyrazin-6-yl)phenyl)picolinamide]
melting point: 255 to 257 °C

O=C(Nc1ccc(-c2cn3ccnc3c(N3CCOCC3)n2)cc1)c1ccc(-c2ccc(C(F)(F)F)cc2)cn1 [12d, N-(4-(8-Morpholinoimidazo[1,2-a]pyrazin-6-yl)phenyl)-5-(4-(trifluoromethyl)phenyl)picolinamide]
IC50 [1]: 69.7 ± 1.13 µM | melting point: 233 to 235 °C | IC50 [2]: 15.3 ± 0.88 µM

COc1ccc(-c2ccc(C(=O)Nc3ccc(-c4cn5ccnc5c(N5CCOCC5)n4)cc3)nc2)cc1 [12e, 5-(4-Methoxyphenyl)-N-(4-(8-morpholinoimidazo[1,2-a]pyrazin-6-yl)phenyl)picolinamide]
melting point: 255 to 257 °C

Cc1cccc(-c2ccc(C(=O)Nc3ccc(-c4cn5ccnc5c(N5CCOCC5)n4)cc3)nc2)c1 [12f, N-(4-(8-Morpholinoimidazo[1,2-a]pyrazin-6-yl)phenyl)-5-(m-tolyl)picolinamide]
IC50 [1]: 26.8 ± 1.47 µM | melting point: 241 to 243 °C | IC50 [2]: 19.1 ± 1.1 µM

Cc1ccc(-c2ccc(C(=O)Nc3ccc(-c4cn5ccnc5c(N5CCOCC5)n4)cc3)nc2)cc1 [12g, N-(4-(8-Morpholinoimidazo[1,2-a]pyrazin-6-yl)phenyl)-5-(p-tolyl)picolinamide]
IC50 [1]: 42.3 ± 0.86 µM | melting point: 258 to 260 °C | IC50 [2]: 68.1 ± 0.89 µM

O=C(Nc1ccc(-c2cn3ccnc3c(N3CCOCC3)n2)cc1)c1cc(-c2ccccc2)ccn1 [13a, N-(4-(8-Morpholinoimidazo[1,2-a]pyrazin-6-yl)phenyl)-4-phenylpicolinamide]
melting point: 261 to 262 °C

O=C(Nc1ccc(-c2cn3ccnc3c(N3CCOCC3)n2)cc1)c1cc(-c2cccc(F)c2)ccn1 [13b, 4-(3-Fluorophenyl)-N-(4-(8-morpholinoimidazo[1,2-a]pyrazin-6-yl)phenyl)picolinamide]
melting point: 237 to 239 °C

O=C(Nc1ccc(-c2cn3ccnc3c(N3CCOCC3)n2)cc1)c1cc(-c2ccc(F)cc2F)ccn1 [13c, 4-(2,4-Difluorophenyl)-N-(4-(8-morpholinoimidazo[1,2-a]pyrazin-6-yl)phenyl)picolinamide]
melting point: 266 to 267 °C

O=C(Nc1ccc(-c2cn3ccnc3c(N3CCOCC3)n2)cc1)c1cc(-c2ccc(C(F)(F)F)cc2)ccn1 [13d, N-(4-(8-Morpholinoimidazo[1,2-a]pyrazin-6-yl)phenyl)-4-(4-(trifluoromethyl)phenyl)picolinamide]
IC50 [1]: 55.6 ± 1.32 µM | IC50 [3]: 62.5 ± 1.99 µM | melting point: 269 to 272 °C | IC50 [2]: 42 ± 1.49 µM

COc1ccc(-c2ccnc(C(=O)Nc3ccc(-c4cn5ccnc5c(N5CCOCC5)n4)cc3)c2)cc1 [13e, 4-(4-Methoxyphenyl)-N-(4-(8-morpholinoimidazo[1,2-a]pyrazin-6-yl)phenyl)picolinamide]
IC50 [1]: 59.7 ± 2.22 µM | IC50 [3]: 74.9 ± 1.14 µM | melting point: 257 to 260 °C | IC50 [2]: 23.9 ± 0.81 µM

Cc1cccc(-c2ccnc(C(=O)Nc3ccc(-c4cn5ccnc5c(N5CCOCC5)n4)cc3)c2)c1 [13f, N-(4-(8-Morpholinoimidazo[1,2-a]pyrazin-6-yl)phenyl)-4-(m-tolyl)picolinamide]
IC50 [1]: 65.61 ± 0.52 µM | IC50 [3]: 74.2 ± 1.86 µM | melting point: 233 to 234 °C | IC50 [2]: 10.5 ± 0.82 µM

Cc1ccc(-c2ccnc(C(=O)Nc3ccc(-c4cn5ccnc5c(N5CCOCC5)n4)cc3)c2)cc1 [13g, N-(4-(8-Morpholinoimidazo[1,2-a]pyrazin-6-yl)phenyl)-4-(p-tolyl)picolinamide]
IC50 [3]: 7.89 ± 0.81 µM | melting point: 271 to 273 °C | IC50 [2]: 11.2 ± 1.08 µM

O=C(Nc1ccc(-c2cn3ccnc3c(N3CCOCC3)n2)cc1)c1cc(-c2ccccc2)ncn1 [14a, N-(4-(8-Morpholinoimidazo[1,2-a]pyrazin-6-yl)phenyl)-6-phenylpyrimidine-4-carboxamide]
melting point: 272 to 275 °C | IC50 [2]: 10.8 ± 1.62 µM

Cc1ccc(-c2cc(C(=O)Nc3ccc(-c4cn5ccnc5c(N5CCOCC5)n4)cc3)ncn2)cc1 [14b, N-(4-(8-Morpholinoimidazo[1,2-a]pyrazin-6-yl)phenyl)-6-(p-tolyl)pyrimidine-4-carboxamide]
IC50 [1]: 25 ± 1.19 µM | IC50 [3]: 6.69 ± 2.04 µM | inhibition at 10 µM ([4]; at 10 μM, Kinase-Glo, average of two separate determinations, read-out: PI3Kα 10 μM Inhibitory %): 58 ± 4.4% | melting point: 222 to 225 °C | IC50 [2]: 8.88 ± 0.97 µM

COc1ccc(-c2cc(C(=O)Nc3ccc(-c4cn5ccnc5c(N5CCOCC5)n4)cc3)ncn2)cc1 [14c, 6-(4-Methoxyphenyl)-N-(4-(8-morpholinoimidazo[1,2-a]pyrazin-6-yl)phenyl)pyrimidine-4-carboxamide]
IC50 [1]: 12.7 ± 0.95 µM | IC50 [3]: 10.2 ± 1.62 µM | IC50 ([4]; Kinase-Glo, average of two separate determinations): 1250 ± 130 nM | fold more active than lead compound II against PI3Kα kinase ([4]; ratio of IC50 values, 7.39 μM vs 1.25 μM): 6 fold | melting point: 269 to 271 °C | IC50 [2]: 6.39 ± 1.04 µM

O=C(Nc1ccc(-c2cn3ccnc3c(N3CCOCC3)n2)cc1)c1cc(-c2ccc(Br)cc2)ncn1 [14d, 6-(4-Bromophenyl)-N-(4-(8-morpholinoimidazo[1,2-a]pyrazin-6-yl)phenyl)pyrimidine-4-carboxamide]
IC50 [1]: 37.1 ± 0.97 µM | melting point: 221 to 223 °C | IC50 [2]: 14.4 ± 1.01 µM

O=C(Nc1ccc(-c2cn3ccnc3c(N3CCOCC3)n2)cc1)c1cc(-c2ccc(Cl)cc2)ncn1 [14e, 6-(4-Chlorophenyl)-N-(4-(8-morpholinoimidazo[1,2-a]pyrazin-6-yl)phenyl)pyrimidine-4-carboxamide]
melting point: 235 to 237 °C | IC50 [2]: 17.4 ± 1.01 µM

O=C(Nc1ccc(-c2cn3ccnc3c(N3CCOCC3)n2)cc1)c1cc(-c2ccc(F)cc2)ncn1 [14f, 6-(4-Fluorophenyl)-N-(4-(8-morpholinoimidazo[1,2-a]pyrazin-6-yl)phenyl)pyrimidine-4-carboxamide]
IC50 [3]: 47.1 µM | melting point: 259 to 260 °C | IC50 [2]: 58.2 ± 4.67 µM

O=C(Nc1ccc(-c2cn3ccnc3c(N3CCOCC3)n2)cc1)c1cc(-c2ccc(C(F)(F)F)cc2)ncn1 [14g, N-(4-(8-Morpholinoimidazo[1,2-a]pyrazin-6-yl)phenyl)-6-(4-(trifluoromethyl)phenyl)pyrimidine-4-carboxamide]
IC50 [1]: 96.6 ± 2.58 µM | melting point: 278 to 281 °C

CS(=O)(=O)N1CCN(Cc2cc3nc(-c4cccc5[nH]ncc45)nc(N4CCOCC4)c3s2)CC1 [GDC-0941, 2-(1H-Indazol-4-yl)-6-(4-methanesulfonyl-piperazin-1-ylmethyl)-4-morpholin-4-yl-thieno[3,2-d]pyrimidine, reference compound]
IC50 [1]: 0.2 ± 0.08 µM | IC50 [3]: 0.07 ± 0.03 µM | IC50 [2]: 6.99 ± 0.21 µM
